Columns and labels:
[1] = design: method as in PMID 33046062; details: cited from earlier work
P. falciparum culture = test system: P. falciparum culture; design: method as in PMID 33046062; details: cited from earlier work
P. falciparum 3D7 = experiment: Antiplasmodial SYBR Green I proliferation assay, P. falciparum 3D7; format: cell-based, Plasmodium falciparum; details: Plasmodium falciparum, 3D7, 96 h, 96 h; values in brackets 95% confidence intervals; read-out: IC50 Pf3D7
Excerpt: Antiplasmodial activity against P. falciparum 3D7 (A, C and E) and P. falciparum Dd2 (B, D, F). […] Curves were plotted using non-linear regression based on means from three independent experiments measured in triplicate. Error bars indicate standard deviation, whose values are provided in the respective table.
Plasmodium falciparum culture and antiplasmodial activity. […] Development, parasitaemia, and morphology of parasites were monitored by light microscopy of thin blood smears stained according to the Romanowsky method (Panótico Rápido staining kit; Laborclin, Pinhais, Paraná, Brazil). […] Fresh 0^+ blood was generously provided by “Hospital Novo Atibaia” (Atibaia, SP, Brazil), and approved by the ethics committee at ICB-USP. The antiplasmodial effect of all compounds was validated against P. falciparum 3D7 strain conducting SYBR Green I (Invitrogen) drug assays as previously reported[30],[46] as a modification of the original procedure. […] Parasite proliferation was measured by the DNA load via fluorescence, using 100 μL of a lysis buffer with SYBR Green I (0.02% v/v) and incubated for 1 h at room temperature in the dark. […] Focal and gain adjustment was performed using the non-treated controls (highest expected fluorescence signal). Data was acquired via the CLARIOstar (V5.20) and MARS software, manually scaled to 0–100%, and plotted using GraphPad Prism (v9.5.2 for Windows, GraphPad Software, La Jolla California USA, www.graphpad.com). Non-treated parasites, the highest solvent concentration on parasites, CQ on parasites, and the highest drug concentration in the medium were used as controls for maximal growth, solvent control, positive biological control, and native drug fluorescence, respectively.

HepG2 cells = experiment: Cytotoxicity in human HepG2 cells (WST-1); format: cell-based; details: Homo sapiens, HepG2; 48 h, WST-1; read-out: IC50 HepG2
Experimental: Cytotoxicity in human HepG2 cells.[47] […] Cytotoxic effects of compounds were assessed using the cell proliferation reagent WST-1 (Roche; CELLPRO-RO) in a 96-well plate-based screening assay. HepG2 cells were seeded at 10^4 cells/well (100 μL) in 96-well flat-bottom plates (Sarstedt) the night before the experiment to allow attachment of cells. The next day, two-fold serial dilutions of compounds were prepared in fresh medium in an extra plate, and the medium of cells was replaced by the medium containing the compound dilutions. Non-treated cells (max. proliferation), cells treated with the maximal solvent concentration (DMSO; solvent control), and medium with the maximal compound concentration (native absorbance) used as controls. […] Subsequently, 10 μL WST-1 was added to each well and plates were incubated for additional 4 h under standard conditions. WST-1 is a tetrazolium salt and is metabolised by the mitochondrial succinate-tetrazolium-reductase system of living cells and forms formazan, whose absorbance was measured at 450 nm. Absorbance at 630 nm was assessed to check for protein and precipitation background. Both measurements were acquired via the CLARIOstar (V5.20) and MARS software, manually scaled to 0–100%, and plotted with GraphPad Prism (version 9.5.2 for Windows, GraphPad Software, La Jolla California USA).

human HDAC1 = molecular target: T1, human HDAC1 (Homo sapiens, UniProt Q13547); experiment: In vitro HDAC enzymatic assay, HDAC1; format: biochemical; details: mean ± SD
T1 construct: purchased ENZO Life Sciences AG (Lausen, CH)
Experimental: (§1) In vitro HDAC enzymatic assays. Recombinant human HDAC1 and HDAC6 were purchased from ENZO Life Sciences AG (Lausen, CH) whereas HDAC8 was produced as described before. In vitro testing of the inhibitors in an enzymatic assay was carried out as described in previous publications[32],[33]. For HDAC1 a fluorogenic peptide derived from p53 (Ac-RHKK(Acetyl)-AMC) was used. For HDAC6, the substrate (Abz-SRGGK(thio-TFA)FFRR-NH2) was used as described before.

human HDAC6 = molecular target: T2, human HDAC6 (Homo sapiens, UniProt Q9UBN7); experiment: In vitro HDAC enzymatic assay, HDAC6; format: biochemical; details: for IC50: mean ± SD; for HDAC1/6 SI: ratio HsHDAC1 IC50/HsHDAC6 IC50
T2 construct: purchased ENZO Life Sciences AG (Lausen, CH)
T2 sequence (Q9UBN7 1-1215): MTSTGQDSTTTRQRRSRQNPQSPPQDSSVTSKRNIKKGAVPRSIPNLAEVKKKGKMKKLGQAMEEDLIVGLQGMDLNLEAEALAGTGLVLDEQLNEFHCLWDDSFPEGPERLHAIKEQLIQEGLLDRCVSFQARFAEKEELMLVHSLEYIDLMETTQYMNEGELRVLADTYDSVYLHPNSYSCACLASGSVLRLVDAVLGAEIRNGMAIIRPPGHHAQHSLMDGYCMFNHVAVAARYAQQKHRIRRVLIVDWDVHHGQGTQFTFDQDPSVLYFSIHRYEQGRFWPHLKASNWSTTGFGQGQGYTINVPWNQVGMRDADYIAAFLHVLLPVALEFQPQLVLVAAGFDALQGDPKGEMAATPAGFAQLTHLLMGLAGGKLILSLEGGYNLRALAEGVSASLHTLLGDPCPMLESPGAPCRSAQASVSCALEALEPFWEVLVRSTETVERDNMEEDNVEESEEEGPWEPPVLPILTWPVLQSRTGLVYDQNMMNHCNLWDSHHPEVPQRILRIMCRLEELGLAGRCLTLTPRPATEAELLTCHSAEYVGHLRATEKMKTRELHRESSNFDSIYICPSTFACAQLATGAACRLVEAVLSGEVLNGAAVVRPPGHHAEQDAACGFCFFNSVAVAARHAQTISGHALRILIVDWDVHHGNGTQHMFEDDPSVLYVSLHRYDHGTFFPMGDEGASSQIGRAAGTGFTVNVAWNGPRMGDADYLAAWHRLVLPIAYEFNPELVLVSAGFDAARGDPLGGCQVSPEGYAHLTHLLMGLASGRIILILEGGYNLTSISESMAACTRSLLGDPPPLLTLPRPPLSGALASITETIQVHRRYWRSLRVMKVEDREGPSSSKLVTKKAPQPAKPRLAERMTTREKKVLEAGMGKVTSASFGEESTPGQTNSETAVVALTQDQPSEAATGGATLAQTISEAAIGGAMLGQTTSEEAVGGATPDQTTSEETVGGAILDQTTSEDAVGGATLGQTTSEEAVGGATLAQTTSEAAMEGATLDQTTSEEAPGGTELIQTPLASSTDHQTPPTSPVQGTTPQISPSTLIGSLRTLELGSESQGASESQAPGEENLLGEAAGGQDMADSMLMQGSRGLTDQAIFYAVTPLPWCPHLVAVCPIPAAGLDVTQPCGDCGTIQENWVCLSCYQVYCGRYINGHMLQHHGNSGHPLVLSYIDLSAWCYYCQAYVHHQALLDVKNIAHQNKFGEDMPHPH
Experimental: as §1

HDAC8 = molecular target: T3, HDAC8 (Homo sapiens, UniProt Q9BY41); experiment: In vitro HDAC enzymatic assay, HDAC8; format: biochemical; details: mean ± SD
T3 construct: made in house
T3 sequence (Q9BY41 1-377): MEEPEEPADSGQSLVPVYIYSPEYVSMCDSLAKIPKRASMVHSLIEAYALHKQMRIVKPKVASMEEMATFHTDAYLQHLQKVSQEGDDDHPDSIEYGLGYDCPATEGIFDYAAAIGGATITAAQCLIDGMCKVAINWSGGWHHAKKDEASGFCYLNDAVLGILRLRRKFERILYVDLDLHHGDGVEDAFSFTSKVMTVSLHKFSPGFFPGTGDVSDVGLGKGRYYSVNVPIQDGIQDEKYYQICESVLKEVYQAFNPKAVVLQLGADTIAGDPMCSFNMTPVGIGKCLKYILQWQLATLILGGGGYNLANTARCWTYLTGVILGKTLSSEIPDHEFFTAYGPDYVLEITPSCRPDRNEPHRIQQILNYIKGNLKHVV
Experimental: as §1

Jurkat = test system: Jurkat; design: method as in PMID 33668008; details: Fig. 1A; cited from earlier work
Namalwa = test system: Namalwa; design: method as in PMID 33668008; details: Fig. 1A; cited from earlier work
CYP1A2 = molecular target: T4, CYP1A2 (Homo sapiens, UniProt P05177); experiment: CYP450 inhibition in human liver microsomes, 1A2; format: in vitro ADME; details: 10 µM
T4 construct: 10 μM compound was incubated with human liver microsomes and selective marker substrates; from tissue; host or cells: human liver microsomes
T4 sequence (P05177 1-516): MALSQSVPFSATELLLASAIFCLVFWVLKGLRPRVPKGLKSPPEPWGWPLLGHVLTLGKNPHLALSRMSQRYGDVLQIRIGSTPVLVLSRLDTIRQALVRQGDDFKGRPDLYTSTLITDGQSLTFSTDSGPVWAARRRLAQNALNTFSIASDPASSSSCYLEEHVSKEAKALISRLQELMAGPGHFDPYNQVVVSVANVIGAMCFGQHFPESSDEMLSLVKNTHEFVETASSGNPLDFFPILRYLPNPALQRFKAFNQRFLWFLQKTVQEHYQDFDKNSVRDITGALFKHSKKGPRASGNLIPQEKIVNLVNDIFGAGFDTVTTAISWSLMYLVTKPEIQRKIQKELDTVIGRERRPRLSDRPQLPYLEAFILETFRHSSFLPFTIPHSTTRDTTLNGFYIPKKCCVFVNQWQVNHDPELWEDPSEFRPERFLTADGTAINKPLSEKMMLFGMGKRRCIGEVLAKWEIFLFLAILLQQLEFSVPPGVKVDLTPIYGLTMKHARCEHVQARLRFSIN

CYP450 2C9 = molecular target: T5, CYP450 2C9 (Homo sapiens, UniProt P11712); experiment: CYP450 inhibition in human liver microsomes, 2C9; format: in vitro ADME; details: 10 µM
T5 construct: 10 μM compound was incubated with human liver microsomes and selective marker substrates; from tissue; host or cells: human liver microsomes

CYP450 2D6 = molecular target: T6, CYP450 2D6 (Homo sapiens, UniProt P10635); experiment: CYP450 inhibition in human liver microsomes, 2D6; format: in vitro ADME; details: 10 µM
T6 construct: 10 μM compound was incubated with human liver microsomes and selective marker substrates; from tissue; host or cells: human liver microsomes

CYP450 3A4 = CYP450 3A4 (Homo sapiens, UniProt P08684); experiment: CYP450 inhibition in human liver microsomes, 3A4
Experimental: DMPK evaluation. […] At 0, 5, 10, 20, 40, and 60 min time points, aliquots were removed and acetonitrile was added to quench the reactions and precipitate the proteins. […] After a 10 min incubation, the reaction was terminated and the per cent inhibition was determined.

T1 sequence (Q13547 whole entry): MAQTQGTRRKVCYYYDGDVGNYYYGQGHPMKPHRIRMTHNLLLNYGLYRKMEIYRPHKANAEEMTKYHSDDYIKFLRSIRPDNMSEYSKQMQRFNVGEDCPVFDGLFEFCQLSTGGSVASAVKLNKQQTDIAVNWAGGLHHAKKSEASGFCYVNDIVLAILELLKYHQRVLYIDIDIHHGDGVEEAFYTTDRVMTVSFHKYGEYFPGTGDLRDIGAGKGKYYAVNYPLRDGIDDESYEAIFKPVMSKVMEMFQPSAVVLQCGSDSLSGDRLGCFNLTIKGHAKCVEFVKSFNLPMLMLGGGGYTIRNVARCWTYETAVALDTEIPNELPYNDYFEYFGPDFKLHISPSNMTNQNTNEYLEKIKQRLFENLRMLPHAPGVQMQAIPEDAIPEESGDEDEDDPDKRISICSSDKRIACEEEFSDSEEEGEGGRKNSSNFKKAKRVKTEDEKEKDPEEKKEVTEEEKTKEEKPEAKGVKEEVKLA
T5 sequence (P11712 whole entry): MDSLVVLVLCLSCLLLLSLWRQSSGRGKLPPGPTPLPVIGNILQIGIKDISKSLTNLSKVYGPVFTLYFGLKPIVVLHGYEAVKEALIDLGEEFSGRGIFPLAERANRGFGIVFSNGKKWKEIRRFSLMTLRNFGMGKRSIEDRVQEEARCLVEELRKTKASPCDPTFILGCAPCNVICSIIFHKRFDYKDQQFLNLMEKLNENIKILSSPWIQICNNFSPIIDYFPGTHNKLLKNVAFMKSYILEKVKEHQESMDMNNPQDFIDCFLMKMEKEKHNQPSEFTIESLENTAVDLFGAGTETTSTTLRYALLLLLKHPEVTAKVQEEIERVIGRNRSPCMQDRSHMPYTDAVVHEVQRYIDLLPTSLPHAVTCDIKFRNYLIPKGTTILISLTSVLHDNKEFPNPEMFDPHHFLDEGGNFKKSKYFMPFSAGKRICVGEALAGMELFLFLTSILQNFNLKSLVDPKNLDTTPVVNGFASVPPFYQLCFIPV
T6 sequence (P10635 whole entry): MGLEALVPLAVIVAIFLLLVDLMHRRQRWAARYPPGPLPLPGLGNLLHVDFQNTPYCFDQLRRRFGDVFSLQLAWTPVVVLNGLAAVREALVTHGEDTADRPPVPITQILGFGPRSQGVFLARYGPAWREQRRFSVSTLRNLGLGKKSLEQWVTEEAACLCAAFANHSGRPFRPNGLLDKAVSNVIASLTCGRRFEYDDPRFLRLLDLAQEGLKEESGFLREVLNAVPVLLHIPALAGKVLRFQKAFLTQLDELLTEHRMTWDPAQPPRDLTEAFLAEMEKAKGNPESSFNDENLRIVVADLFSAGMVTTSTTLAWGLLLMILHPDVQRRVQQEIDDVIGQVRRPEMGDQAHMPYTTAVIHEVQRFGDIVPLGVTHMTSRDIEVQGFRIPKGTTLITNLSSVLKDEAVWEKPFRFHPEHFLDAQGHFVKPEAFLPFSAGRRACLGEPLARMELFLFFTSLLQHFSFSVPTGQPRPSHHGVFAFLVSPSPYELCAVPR
Sequence of CYP450 3A4 (P08684 whole entry): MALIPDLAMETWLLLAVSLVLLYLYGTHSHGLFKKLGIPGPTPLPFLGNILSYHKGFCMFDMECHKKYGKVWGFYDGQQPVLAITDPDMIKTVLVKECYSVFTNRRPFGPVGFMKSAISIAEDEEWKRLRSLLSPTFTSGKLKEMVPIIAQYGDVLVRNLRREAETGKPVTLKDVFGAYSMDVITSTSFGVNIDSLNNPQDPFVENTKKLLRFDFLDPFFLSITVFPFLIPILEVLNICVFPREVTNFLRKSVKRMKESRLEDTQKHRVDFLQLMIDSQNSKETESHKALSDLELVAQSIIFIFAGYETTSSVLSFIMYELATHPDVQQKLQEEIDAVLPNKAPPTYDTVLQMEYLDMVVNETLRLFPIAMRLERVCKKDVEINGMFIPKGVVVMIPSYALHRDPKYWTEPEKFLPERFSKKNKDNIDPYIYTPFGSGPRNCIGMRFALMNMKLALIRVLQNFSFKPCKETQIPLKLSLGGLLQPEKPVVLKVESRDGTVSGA

| SMILES | Half-life t1/2 [1] | IC50 against P. falciparum culture (P. falciparum culture) | IC50 (P. falciparum 3D7) | IC50 (HepG2 cells) | IC50 (human HDAC1) | IC50 (human HDAC6) | HDAC1/6 SI (human HDAC6) | IC50 (HDAC8) | melting point | IC50 (Jurkat) | IC50 (Namalwa) | CYP450% inhibition @ 10 µM 1A2 (CYP1A2) | CYP450% inhibition @ 10 µM 2C9 (CYP450 2C9) | CYP450% inhibition @ 10 µM 2D6 (CYP450 2D6) | CYP450% inhibition @ 10 µM 3A4 (CYP450 3A4) |
| --- | --- | --- | --- | --- | --- | --- | --- | --- | --- | --- | --- | --- | --- | --- | --- |
| Cl.O=C(NO)c1ccc(Cn2cc(-c3ccc(CN4CCCC4)cc3)nn2)cc1 [FNDR-20123] | 2 to 9.21 h | low nanomolar range | – | – | – | – | – | – | – | – | – | – | – | – | – |
| O=C(/C=C/c1ccc(NC(=O)Nc2ccccc2)cc1)NO [Compound 6a, (E)-N-hydroxy-3-(4-(3-phenylureido)phenyl)acrylamide] | – | – | 1720 nM | 22900 nM | 1350 ± 64.2 nM | 12.4 ± 0.7 nM | 109 | 95.1 ± 4.6 nM | 202 to 204 °C | 160 nM | 300 nM | – | – | – | – |
| Nc1ccc(S(=O)(=O)Nc2ccnn2-c2ccccc2)cc1 [Sulfaphenazole, reference compound] | – | – | – | – | – | – | – | – | – | – | – | * (Inhibition < 10%) | 94% | * (Inhibition < 10%) | * (Inhibition < 10%) |
| O=C(CCc1ccc(NC(=O)Nc2ccccc2)cc1)NO [Compound 7a, N-hydroxy-3-(4-(3-phenylureido)phenyl)propanamide] | – | – | 4570 nM | > 50000 nM | 4890 ± 210 nM | 152 ± 11.6 nM | 32 | 462 ± 27.6 nM | 304 °C (dec.) | 1590 nM | 780 nM | – | – | – | – |
